According to BigSolDB 2.1:

CCCCCCCC[n+]1csc2ccccc21.F[P-](F)(F)(F)(F)F
Conditions | solubility (mole fraction)
in furfural, 271.1 K | 0.33
in furfural, 274.97 K | 0.35
in furfural, 278.47 K | 0.38
in furfural, 281.46 K | 0.396
in furfural, 285.15 K | 0.423
in furfural, 287.37 K | 0.445
in furfural, 289.48 K | 0.471
in furfural, 292.47 K | 0.5
in furfural, 296.07 K | 0.541
in furfural, 300.95 K | 0.597
in furfural, 305.47 K | 0.64
in furfural, 311.66 K | 0.711
in furfural, 314.97 K | 0.745
in furfural, 318.86 K | 0.786
in furfural, 321.52 K | 0.81
in furfural, 323.8 K | 0.829
in furfural, 327.08 K | 0.858
in water, 278.15 K | 1.79e-05
in water, 283.2 K | 2.1e-05
in water, 290.15 K | 2.61e-05
in water, 294.15 K | 3.12e-05
in water, 300.15 K | 4.01e-05
in water, 308.15 K | 5.5e-05
in water, 313.15 K | 7e-05
in water, 318.15 K | 9.11e-05
in water, 323.15 K | 0.000107
in water, 328.15 K | 0.000128
in water, 333.15 K | 0.000142
in water, 338.15 K | 0.000163
in water, 342.95 K | 0.000179
in water, 348.15 K | 0.000196
in water, 352.75 K | 0.000212
in water, 358.05 K | 0.000235
in water, 363.15 K | 0.000261
in water, 367.75 K | 0.000285

CCCCC[n+]1csc2ccccc21.F[P-](F)(F)(F)(F)F
Conditions | solubility (mole fraction)
in furfural, 272.3 K | 0.085
in furfural, 277.25 K | 0.0866
in furfural, 284.65 K | 0.0981
in furfural, 290.85 K | 0.108
in furfural, 296.15 K | 0.118
in furfural, 302.85 K | 0.131
in furfural, 313.5 K | 0.151
in furfural, 321.04 K | 0.171
in furfural, 324.75 K | 0.189
in furfural, 330 K | 0.214
in furfural, 335.04 K | 0.239
in water, 278.15 K | 2.36e-05
in water, 282.35 K | 2.97e-05
in water, 290.15 K | 4.01e-05
in water, 295.15 K | 4.89e-05
in water, 302.15 K | 6.5e-05
in water, 308.15 K | 8.63e-05
in water, 313.25 K | 0.00011
in water, 318.15 K | 0.00013
in water, 323.15 K | 0.000153
in water, 328.15 K | 0.000189
in water, 330.05 K | 0.000205
in water, 333.15 K | 0.000226
in water, 338.05 K | 0.000259
in water, 342.75 K | 0.000293
in water, 348.15 K | 0.000356
in water, 353.15 K | 0.000466
in water, 357.95 K | 0.000676
in water, 363.15 K | 0.000878
in water, 368.05 K | 0.00109

CCCC[n+]1csc2ccccc21.F[P-](F)(F)(F)(F)F
Conditions | solubility (mole fraction)
in furfural, 273.3 K | 0.155
in furfural, 281.45 K | 0.185
in furfural, 288.25 K | 0.205
in furfural, 298.35 K | 0.246
in furfural, 302.93 K | 0.263
in furfural, 311 K | 0.3
in furfural, 317.62 K | 0.333
in furfural, 324.5 K | 0.364
in furfural, 331.25 K | 0.393
in water, 278.15 K | 6.76e-05
in water, 283.2 K | 8.72e-05
in water, 288.1 K | 0.000113
in water, 293.05 K | 0.000139
in water, 298.15 K | 0.000168
in water, 302.95 K | 0.000204
in water, 308.55 K | 0.000237
in water, 313.15 K | 0.000297
in water, 318.1 K | 0.000355
in water, 323 K | 0.000405
in water, 327.95 K | 0.000478
in water, 333.1 K | 0.0006
in water, 338.05 K | 0.000721
in water, 343.1 K | 0.000839
in water, 348 K | 0.001
in water, 353.15 K | 0.00116
in water, 357.9 K | 0.00142
in water, 363 K | 0.00175
in water, 367.9 K | 0.00198

CCCCCC[n+]1csc2ccccc21.F[P-](F)(F)(F)(F)F
Conditions | solubility (mole fraction)
in furfural, 273.25 K | 0.201
in furfural, 276 K | 0.208
in furfural, 282.04 K | 0.234
in furfural, 290.19 K | 0.269
in furfural, 296.05 K | 0.297
in furfural, 301.03 K | 0.321
in furfural, 305.08 K | 0.345
in furfural, 308.23 K | 0.366
in furfural, 311.95 K | 0.385
in furfural, 315.95 K | 0.406
in furfural, 318.39 K | 0.424
in furfural, 321.62 K | 0.451
in furfural, 325.05 K | 0.479
in furfural, 327.64 K | 0.513
in furfural, 330.95 K | 0.55
in furfural, 333.5 K | 0.581
in furfural, 335.75 K | 0.616
in water, 278.15 K | 3.17e-05
in water, 282.75 K | 3.31e-05
in water, 289.15 K | 4.3e-05
in water, 294.15 K | 5.12e-05
in water, 298.15 K | 6.5e-05
in water, 303.15 K | 7.64e-05
in water, 308.15 K | 9.38e-05
in water, 313.15 K | 0.000109
in water, 318.15 K | 0.000129
in water, 323.15 K | 0.000156
in water, 328.15 K | 0.00021
in water, 330.15 K | 0.000235
in water, 333.05 K | 0.000256
in water, 338.05 K | 0.000322
in water, 342.75 K | 0.000404
in water, 347.95 K | 0.000463
in water, 352.95 K | 0.000543
in water, 357.75 K | 0.000595
in water, 362.95 K | 0.000659
in water, 367.95 K | 0.000743

CCCCCCC[n+]1csc2ccccc21.F[P-](F)(F)(F)(F)F
Conditions | solubility (mole fraction)
in furfural, 272.2 K | 0.27
in furfural, 274.55 K | 0.276
in furfural, 280.85 K | 0.297
in furfural, 284.65 K | 0.318
in furfural, 291.71 K | 0.35
in furfural, 296.7 K | 0.38
in furfural, 301.2 K | 0.41
in furfural, 304.21 K | 0.433
in furfural, 307.6 K | 0.451
in furfural, 310.41 K | 0.47
in furfural, 313.72 K | 0.487
in furfural, 315.6 K | 0.503
in furfural, 318.68 K | 0.532
in furfural, 322.88 K | 0.561
in furfural, 325.58 K | 0.582
in furfural, 327.81 K | 0.601
in furfural, 329.99 K | 0.622
in furfural, 331.87 K | 0.644
in water, 278.15 K | 2.26e-05
in water, 282.35 K | 2.91e-05
in water, 288.15 K | 3.5e-05
in water, 294.15 K | 4.2e-05
in water, 300.15 K | 5.5e-05
in water, 308.15 K | 7.07e-05
in water, 313.05 K | 8.48e-05
in water, 318.15 K | 0.000106
in water, 323.15 K | 0.000124
in water, 328.15 K | 0.000155
in water, 333.15 K | 0.000186
in water, 338.05 K | 0.00023
in water, 342.75 K | 0.000272
in water, 348.45 K | 0.000311
in water, 353.15 K | 0.000357
in water, 358.15 K | 0.00041
in water, 363.35 K | 0.000464
in water, 368.55 K | 0.000521
